Assay [1] concerns Candida albicans. In words: Antimicrobial activity against Candida albicans ATCC 10231 by agar-dilution streak method. Type of assay: functional.
Assay [2] has as its system Klebsiella pneumoniae. Put plainly: Antimicrobial activity against Klebsiella pneumoniae ATCC 10031 at 100 ug/ml by agar-dilution streak method. Type of assay: functional, organism-based.
For assay [3], the system named is Escherichia coli. In words: Antimicrobial activity against Escherichia coli ATCC 9637 at 100 ug/ml by agar-dilution streak method. Type of assay: functional, organism-based.
Assay [4] has as its system Pseudomonas aeruginosa. Put plainly: Antimicrobial activity against Pseudomonas aeruginosa ATCC 27853 at 100 ug/ml by agar-dilution streak method. Type of assay: functional, organism-based.
Assay [5] relates to Staphylococcus aureus. In words: Antimicrobial activity against Staphylococcus aureus ATCC 13709 by agar-dilution streak method. Type of assay: functional.
The subject of assay [6] is Mycolicibacterium smegmatis. In words: Antimicrobial activity against Mycobacterium smegmatis ATCC 607 by agar-dilution streak method. Type of assay: functional.
Assay [7] has as its system Salmonella enterica subsp. enterica serovar Gallinarum. In words: Antimicrobial activity against Salmonella gallinarum ATCC 9184 at 100 ug/ml by agar-dilution streak method. Type of assay: functional, organism-based.
Assay [8] concerns Candida albicans. Put plainly: Antimicrobial activity against Candida albicans ATCC 10231 at 100 ug/ml by agar-dilution streak method. Type of assay: functional, organism-based.
Assay [9] concerns Salmonella enterica subsp. enterica serovar Gallinarum. In words: Antimicrobial activity against Salmonella gallinarum ATCC 9184 by agar-dilution streak method. Type of assay: functional.
Assay [10] concerns Klebsiella pneumoniae. In words: Antimicrobial activity against Klebsiella pneumoniae ATCC 10031 by agar-dilution streak method. Type of assay: functional.
For assay [11], the system named is Escherichia coli. Put plainly: Antimicrobial activity against Escherichia coli ATCC 9637 by agar-dilution streak method. Type of assay: functional.

Calls of active or inactive are those of the source. No cut-off for these calls is given here.

For `CCCCCc1cc2cc(O)cc(Oc3c(O)cc(O)c4c3CC(CCCCC)(OCC)OC4=O)c2c(=O)o1` (stereo not given), the Activity was found to be 100 µg/mL in assay [1], 50 µg/mL in assay [5] and 50 µg/mL in [6]. In addition, the outcome in assay [2], in assay [3], in [4] and in assay [7] was inactive.
Turning to `CC(=O)C1=C(O)C=C2Oc3c(C(C)=O)c(O)c(C)c(O)c3[C@]2(C)C1=O` [(-)-USNIC ACID], the Activity was determined as 50 µg/mL in assay [1], 25 µg/mL in assay [5] and 6.25 µg/mL in assay [6]. Moreover, the result in assay [2], in assay [3], in assay [4] and in assay [7] was inactive.
For the molecule `Cc1cc(O)cc2oc3cc(O)c4c(c3c12)C(O)OC4=O` (stereo not given) [ALECTOSARMENTIN], the result in assay [2], in [3], in assay [4], in assay [8] and in assay [7] was inactive. Moreover, the Activity in [5] and in assay [6] was 25 µg/mL in each case.
Take `CCCCCC(=O)Cc1cc(O)cc2c1C(=O)Oc1cc(O)c(C(=O)O)c(CCCCC)c1O2` [PHYSODIC ACID]: the result in assay [2], in assay [3], in [4], in assay [8] and in assay [7] was inactive. Moreover, the Activity in [5] came to 25 µg/mL; in assay [6], 100 µg/mL.
Consider `CN[C@@H]1[C@H](O[C@H]2[C@H](O[C@H]3[C@H](O)[C@@H](O)[C@H](N=C(N)N)[C@@H](O)[C@@H]3N=C(N)N)O[C@@H](C)[C@]2(O)C=O)O[C@@H](CO)[C@H](O)[C@H]1O.CN[C@@H]1[C@H](O[C@H]2[C@H](O[C@H]3[C@H](O)[C@@H](O)[C@H](N=C(N)N)[C@@H](O)[C@@H]3N=C(N)N)O[C@@H](C)[C@]2(O)C=O)O[C@@H](CO)[C@H](O)[C@H]1O.O=S(=O)(O)O.O=S(=O)(O)O.O=S(=O)(O)O` [STREPTOMYCIN SULFATE], for which the Activity came out at 50 µg/mL in assay [9]; 2.5 µg/mL in assay [10]; 5 µg/mL in assay [5]; 1.25 µg/mL in assay [6]; 5 µg/mL in [11]. Besides, the outcome in assay [4] and in assay [8] was inactive.

Source of the values: ChEMBL document CHEMBL1148043, “Alectosarmentin, a new antimicrobial dibenzofuranoid lactol from the lichen, Alectoria sarmentosa” (1994).
